Data on 2 compounds can be found in patent US20250049776A1, “AUTOPHAGY INDUCING COMPOUNDS AND USES THEREOF, IN PARTICULAR FOR A SYSTEMIC TREATMENT OF DISEASES AND CONDITIONS” (Samsara Therapeutics Inc., priority 2021, published 2025).

Data set [1] has as its system SH-SY5Y. In words: Cytotoxicity assay (MTT) parallel to ZIKV infectivity assay. Conditions: SH-SY5Y cells, 48 h. The data set is classed as cell-based. Further details: key: A “—” symbol indicates no inhibition. As for the experimental part: (§1) In parallel to the infectivity assays, in order to determine the cytotoxic properties of the compound, cells were seeded in 96 well plates and the following day pre-treated with the same serial dilutions of compound in 100 μl of assay media. The compound was left on the cells for the duration of the infectivity assays, after which a metabolic assay (MTT assay) was used to determine cell viability compared to a DMSO-treated control.

Data set [2] relates to adult human dermal fibroblast cells (HDFa cells). Nature of the data set: Acidic vesicle formation in adult human dermal fibroblast cells. Particulars: concentration of 10 μM. Type of data set: cell-based. The text has this:
This is evidence for significant stimulation of autophagy by this compound under these conditions.

In data set [3] the test system is Human osteosarcoma U20S cells. Nature of the data set: Assay to measure lysosome and autolysosome formation (acidic vesicle formation, LysoView/LysoTracker staining). Type of data set: cell-based. Conditions: U20S cells. Put shortly: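 U2OS cells treated with compounds in DMSO for 24 h, then stained 45 min at 37 °C with 1× LysoView 633 or 50 nM LysoTracker Deep Red, with Hoechst nuclear counterstain. Live-cell fluorescence imaging at 37 °C; acidic vesicle formation judged against DMSO-treated control.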

Data set [4] has as its system ZIKV. Nature of the data set: Infectivity assay ZIKV in SH-SY5Y cells. Type of data set: cell-based. Particulars: Zika virus, MOI 5, 48 h, E staining. As for the experimental part:
(§2) Cells were seeded in 96 well plates and the following day pre-treated with a 3-fold serial dilution of compound starting from 20 μM, in 100 μL of assay media. 24 hours later, cells were infected (without removing the media) with ZIKV or HCMV at a multiplicity of infection (MOI) compatible with multiple rounds of virus replication. DMSO-treated infected and uninfected cells were included as positive and negative controls. [table]

The subject of data set [5] is HCMV. In words: Infectivity assay HCMV in HFF cells. The data set is classed as cell-based, Human Cytomegalovirus (HCMV). Conditions: Human betaherpesvirus 5, 360 h, MOI 1, 15 days, gB staining. As for the experimental part: as §2
Data set [6] can be described thus: Cytotoxicity assay (MTT) parallel to HCMV infectivity assay. The data set is classed as cell-based. Conditions: human, HFF cells, read-out: HCMV TC50. As for the experimental part:
as §1

Data set [7] deals with Mutant PNPLA3-Expressing HepG2 Cells (GFP-PNPLA3 (1148>M)). In words: Cellular model of NAFLD: gel assay for mutant PNPLA3-expressing HepG2 cells. The data set is classed as cell-based. Particulars: HepG2 cells transfected with GFP-PNPLA3 (1148>M), 24 hours. As for the experimental part:
Method: HepG2 cells were transfected with GFP-PNPLA3 (1148>M) overexpression plasmid using Lipofectamine LTX in DMEM media supplied with 1% Oleic Acid-BSA and were left overnight. The next day, cells were trypsinated and were seeded in a 96-well plate in DMEM media supplied with 1% Oleic Acid-BSA. After 7 hours, media was changed to standard DMEM supplied with the compound of interest. After 24 hours, cells were washed once with PBS and were lysed in RIPA buffer. Lysates were collected, centrifuged and the supernatants were mixed with Laemmli buffer (without DTT or boiling) and were loaded on a 4-20% SDS-PAGE gel. After electrophoresis, gels were directly imaged in the FITC channel to visualise the GFP signal.

Data set [8] has as its system Differentiated hepatocyte GSD1A disease model cells. In words: iPSC model of glycogen storage disease type 1A: glycogen and triglyceride quantification. Conditions: hepatocytes differentiated from GSD1A patient derived iPSCs, 10 μM. Type of data set: cell-based, human. As for the experimental part:
Timetable for Treatment of Cells with the Compounds: • Day 1. Differentiated hepatocyte GSD1A disease model cells (DefiniGEN Ltd) were cultured in a collagen I coated 48-well plate. Empty wells were filled with PBS. • Day 9. The racemic mixture of compounds 170 and 171 (as a solution in DMSO) was added to the disease model cells • Day 11. Media for disease model cells was replaced with fresh media with compound. • Day 12. Cells were washed once in PBS and once in HBSS and 30 μL of NP40 Lysis buffer supplied with Phosphatase and Protease inhibitor cocktail was added to each well. Plate was immediately placed on dry ice. […]
Protein quantification: An aliquot of the lysates was used for protein quantification using BCA.
Glycogen quantification: An aliquot of the lysates was boiled at 96° C. for 5 minutes. […] Supernatant was used for Glycogen quantification using MAK016 kit (Merck), following manufacturer's instructions. […] 8 μL of Hydrolysis buffer from the kit was added to one aliquot from each sample (-HE; to quantify free glucose content of the lysate). The other sample was supplied with 8 μL of Hydrolysis buffer supplied with Hydrolysis Enzyme (+HE; to quantify free glucose+glycogen content of the lysate). After 30 minutes of incubation at room temperature, 10 μL of probe mix was added to each well and the absorbance at 570 nm was measured after 30 minutes incubation at room temperature. […]

The test system of data set [9] is dopaminergic Tyrosine hydroxylase (TH)-positive neurons injured with MPTP. Nature of the data set: Cellular model of Parkinson's disease (MPTP/MPP+ injury of primary mesencephalic neurons). The data set is classed as cell-based, Rat. Particulars: concentrations of 10 μM. The source says: This model (run by Neuro-Sys SAS, France) is based on a primary culture of dopaminergic Tyrosine hydroxylase (TH)-positive neurons injured with the dopaminergic neurons-specific toxin (DA-toxin) 1-methyl-4-phenyl-1,2,3,6 tetrahydropyridine (MPTP, a prodrug of MPP*) (Dauer and Przedborski, 2003). Any substances reducing DA-toxin neurotoxicity may be useful as a new therapeutic agent for the treatment or prevention of PD.
Primary culture of mesencephalic neurons: Rat dopaminergic neurons were cultured as described by Visanji et al., 2008 and Callizot et al., 2019. Briefly, pregnant female rat (Wistar) of 15 days of gestation were killed using a deep anesthesia with CO2 chamber and a cervical dislocation. The midbrains obtained from 15-day-old rat embryos (Janvier, France) were dissected under a microscope. The embryonic midbrains will be removed and placed in ice-cold medium of Leibovitz (L15) containing 2% of Penicillin-Streptomycin (PS) and 1% of bovine serum albumin (BSA). The ventral portion of the mesencephalic flexure, a region of the developing brain rich in dopaminergic neurons, was used for the cell preparations.
The midbrains were dissociated by trypsinisation for 20 min at 37° C. (solution at a final concentration of 0.05% trypsin and 0.02% EDTA). The reaction was stopped by the addition of Dulbecco's modified Eagle's medium (DMEM) containing DNAase I grade II (0.5 mg/mL) and 10% of foetal calf serum (FCS). Cells were then mechanically dissociated by 3 passages through a 10 ml pipette. Cells were then centrifuged at 180×g for 10 min at +4° C. on a layer of BSA (3.5%) in L15 medium. The supernatant was discarded and the cell pellets re-suspended in a defined culture medium consisting of Neurobasal supplemented with B27 (2%), L-glutamine (2 mM) and 2% of PS solution and 10 ng/mL of Brain-derived neurotrophic factor (BDNF) and 1 ng/mL of Glial-Derived Neurotrophic Factor (GDNF). Viable cells were counted in a Neubauer cytometer using the trypan blue exclusion test. The cells were seeded at a density of 40,000 cells/well in 96 well-plates (pre-coated with poly-L-lysine) and maintained in a humidified incubator at 37° C. in 5% CO2/95% air atmosphere. Half of the medium was changed every 2 days with fresh medium. The wells of first and last lines and columns […] (to avoid any edge effect) and were be filled with sterile water.
Test compounds and MPTP: • i) Pre-incubation. On day 6 of culture, the test compounds were dissolved in PBS or DMSO and incubated for 1 hour before the MPTP exposure. • ii) Injury. One hour after the application of test compound, MPTP was added to a final concentration of 4 μM, diluted in control medium still in presence of compounds/inhibitors for 48h. Test compounds were tested on one culture in 96-well plate (n=6 culture wells per condition).
Immunostaining: TH and α-Synuclein. 48 Hours after intoxication, the cell culture supernatant was removed, and the cells were fixed by a solution of 4% paraformaldehyde in PBS, pH=7.3 for 20 min at room temperature. The cells were washed twice in PBS, and then permeabilized. Non-specific sites were blocked with a solution of PBS containing 0.1% of saponin and 1% FCS for 15 min at room temperature. The cultures were incubated with: (a) monoclonal anti-Tyrosine Hydroxylase (TH) antibody produced in mouse at dilution of 1/10000 in PBS containing 1% FCS, 0.1% saponin, for 2 hours at room temperature, and (b) polyclonal anti-alpha synuclein (α-synuclein) antibody produced in rabbit at dilution of 1/200 in PBS containing 1% FCS, 0.1% saponin, for 2 h at room temperature.
Automatic computer analysis. For each condition, 20 pictures (representing the whole well area) were automatically taken using ImageXpress® (Molecular Devices) at 10× magnification (20 pictures, for TH and α-synuclein into TH neurons) using the same acquisition parameters. From images, analyses was directly and automatically performed by MetaXpress® (Molecular Devices).

A word on the IC50: it is the midpoint of a concentration-inhibition curve.

As for `CCCN(C(=O)c1csc(-c2cnn(-c3ccccc3)c2)n1)C1CCNC1` (racemic) [racemic mixture of compounds 170 and 171], the “ZIKV TC50” value in [1] is “—”. In addition, the “acidic vesicle formation relative to a DMSO-treated control” value was “significantly greater acidic vesicle formation” in data set [2] and “clearly increased” in data set [3] (concentration of 10 μM, 24 hours). In [3] (relative to DMSO-treated control (10 μM)), the “increase in acidic vesicle formation” value is listed as “at least 25%”. Further, the results for the IC50 in data set [4] and in data set [5] were less than 15 µM and less than 10 µM, respectively. Further, in data set [6], the CC50 at 15 days is greater than 75 µM. Besides, the “fold increase in GFP breakdown Bafilomycin-sensitive-product signal versus an inactive control” value in data set [7] worked out at 3.7 fold. Moreover, the “reduction of cellular glycogen compared with the DMSO-only control” value in data set [8] is “over 75%”. Besides, in data set [8], the “reduction of cellular triglycerides compared with the DMSO-only control” value was greater than 20%.

Take `NC[C@H]1CCCN1C(=O)c1csc(-c2cnn(-c3ccccc3)c2)n1` [Compound 156, 1-[(2R)-1-[2-(1-phenyl-1H-pyrazol-4-yl)-1,3-thiazole-4-carbonyl]pyrrolidin-2-yl]methanamine]: in data set [9] (1 μM and 500 nM), the “increase in the length of the neurite network of dopaminergic TH positive neurons compared to the MPP+ injury alone” value is greater than 39% and the “increase in the number of dopaminergic TH positive neurons compared to MPP+ injury alone” value was greater than 18%. For the same compound, the “decrease in α-syn area per dopaminergic TH positive neuron compared to MPP+ injury alone” value in data set [9] (1 μM, 500 nM and 100 nM) is given as greater than 13%.
